Assay results taken from patent US20170137410A1, “FUSED CYCLOALKYL-PYRIMIDINE COMPOUNDS AND USES THEREOF” (Medivation Technologies, Inc., priority 2014, published 2017).

Experiments:
FLT3 (ITD) = target: T1, FLT3 (ITD) (Homo sapiens, UniProt P36888); assay: HotSpot kinase assay against FLT3 (ITD); assay type: biochemical; details: HotSpot 33P assay, ATP 10 μM
T1 sequence (P36888 1-993): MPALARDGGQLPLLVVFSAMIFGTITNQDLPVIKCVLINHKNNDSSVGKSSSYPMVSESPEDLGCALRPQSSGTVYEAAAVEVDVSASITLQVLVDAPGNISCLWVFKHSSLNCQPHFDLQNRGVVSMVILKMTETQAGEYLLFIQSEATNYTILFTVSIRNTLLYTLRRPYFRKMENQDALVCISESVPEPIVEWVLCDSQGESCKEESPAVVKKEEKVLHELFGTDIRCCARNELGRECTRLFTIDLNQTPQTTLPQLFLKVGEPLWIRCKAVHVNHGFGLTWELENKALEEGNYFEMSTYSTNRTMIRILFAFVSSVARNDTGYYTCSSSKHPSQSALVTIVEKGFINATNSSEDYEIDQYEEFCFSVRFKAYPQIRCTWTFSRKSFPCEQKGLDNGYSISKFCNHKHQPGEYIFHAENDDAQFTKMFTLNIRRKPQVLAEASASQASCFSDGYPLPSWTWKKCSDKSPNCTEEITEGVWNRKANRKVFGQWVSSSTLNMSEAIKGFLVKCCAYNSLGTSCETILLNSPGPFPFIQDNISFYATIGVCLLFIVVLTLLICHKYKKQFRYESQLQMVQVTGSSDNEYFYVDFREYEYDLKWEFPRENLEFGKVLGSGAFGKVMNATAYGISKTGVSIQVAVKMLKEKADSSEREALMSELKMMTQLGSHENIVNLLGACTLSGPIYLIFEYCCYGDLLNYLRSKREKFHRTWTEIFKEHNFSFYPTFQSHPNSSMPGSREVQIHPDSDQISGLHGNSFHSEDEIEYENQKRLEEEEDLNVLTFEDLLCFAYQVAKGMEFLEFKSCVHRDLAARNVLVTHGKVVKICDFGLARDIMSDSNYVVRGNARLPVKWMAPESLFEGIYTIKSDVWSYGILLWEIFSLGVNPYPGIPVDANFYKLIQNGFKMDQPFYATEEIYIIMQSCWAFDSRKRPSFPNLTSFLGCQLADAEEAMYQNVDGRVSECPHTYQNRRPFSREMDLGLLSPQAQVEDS
Procedure: Kinase assays were performed using test compounds against a panel of FLT3 kinases: FLT3; FLT3 (D835Y); and FLT3 (ITD). Compounds were prepared as 10 mM stock solutions in DMSO prior to use in the assay. Each compound was tested at 10 concentrations with three-fold serial dilution starting at 1 μM against the three kinases. The control compound, staurosporine, was tested at 10 concentrations with four-fold serial dilution starting at 20 μM. IC50 values and curve fits were obtained using Prism (GraphPad Software). The screening was performed using the “HotSpot” assay platform. The assay measures the conversion of a peptide substrate to ^33P-labelled phosphorylated product. Briefly, specific kinase/substrate pairs along with required cofactors were prepared in reaction buffer. Specifically, the substrate was prepared in reaction buffer (20 mM Hepes, pH 7.5; 10 mM MgCl2; 1 mM EGTA; 0.02% Brij35; 0.02 mg/mL BSA; 0.1 mM Na3VO4; 2 mM DTT; 1% DMSO), followed by delivery of any required cofactor to the resulting substrate solution. The corresponding kinase was delivered into the substrate solution and the reaction mixture was mixed gently. Compound was delivered into the reaction mixture, followed 15-20 min later by addition of a mixture of ATP (Sigma, St. Louis Mo.) and ^33P ATP (specific activity 0.01 μCi/μL final; Perkin Elmer, Waltham, Mass.) to a final concentration of 10 μM to initiate the reaction. Reactions were carried out at RT for 120 min, followed by spotting of the reactions onto P81 ion exchange filter paper (Whatman #3698-915; Whatman Inc., Piscataway, N.J.). Unbound phosphate was removed by extensive washing of filters in 0.75% phosphoric acid. […] The percent of enzyme inhibition was calculated based on the percent of remaining kinase activity. IC50 values were determined.

ROS/ROS1 = ROS/ROS1 (Homo sapiens, UniProt P08922); assay: HotSpot kinase assay against ROS/ROS1; assay type: biochemical; details: HotSpot 33P assay, ATP 10 μM-30 μM
Sequence of ROS/ROS1 (P08922 28-2347): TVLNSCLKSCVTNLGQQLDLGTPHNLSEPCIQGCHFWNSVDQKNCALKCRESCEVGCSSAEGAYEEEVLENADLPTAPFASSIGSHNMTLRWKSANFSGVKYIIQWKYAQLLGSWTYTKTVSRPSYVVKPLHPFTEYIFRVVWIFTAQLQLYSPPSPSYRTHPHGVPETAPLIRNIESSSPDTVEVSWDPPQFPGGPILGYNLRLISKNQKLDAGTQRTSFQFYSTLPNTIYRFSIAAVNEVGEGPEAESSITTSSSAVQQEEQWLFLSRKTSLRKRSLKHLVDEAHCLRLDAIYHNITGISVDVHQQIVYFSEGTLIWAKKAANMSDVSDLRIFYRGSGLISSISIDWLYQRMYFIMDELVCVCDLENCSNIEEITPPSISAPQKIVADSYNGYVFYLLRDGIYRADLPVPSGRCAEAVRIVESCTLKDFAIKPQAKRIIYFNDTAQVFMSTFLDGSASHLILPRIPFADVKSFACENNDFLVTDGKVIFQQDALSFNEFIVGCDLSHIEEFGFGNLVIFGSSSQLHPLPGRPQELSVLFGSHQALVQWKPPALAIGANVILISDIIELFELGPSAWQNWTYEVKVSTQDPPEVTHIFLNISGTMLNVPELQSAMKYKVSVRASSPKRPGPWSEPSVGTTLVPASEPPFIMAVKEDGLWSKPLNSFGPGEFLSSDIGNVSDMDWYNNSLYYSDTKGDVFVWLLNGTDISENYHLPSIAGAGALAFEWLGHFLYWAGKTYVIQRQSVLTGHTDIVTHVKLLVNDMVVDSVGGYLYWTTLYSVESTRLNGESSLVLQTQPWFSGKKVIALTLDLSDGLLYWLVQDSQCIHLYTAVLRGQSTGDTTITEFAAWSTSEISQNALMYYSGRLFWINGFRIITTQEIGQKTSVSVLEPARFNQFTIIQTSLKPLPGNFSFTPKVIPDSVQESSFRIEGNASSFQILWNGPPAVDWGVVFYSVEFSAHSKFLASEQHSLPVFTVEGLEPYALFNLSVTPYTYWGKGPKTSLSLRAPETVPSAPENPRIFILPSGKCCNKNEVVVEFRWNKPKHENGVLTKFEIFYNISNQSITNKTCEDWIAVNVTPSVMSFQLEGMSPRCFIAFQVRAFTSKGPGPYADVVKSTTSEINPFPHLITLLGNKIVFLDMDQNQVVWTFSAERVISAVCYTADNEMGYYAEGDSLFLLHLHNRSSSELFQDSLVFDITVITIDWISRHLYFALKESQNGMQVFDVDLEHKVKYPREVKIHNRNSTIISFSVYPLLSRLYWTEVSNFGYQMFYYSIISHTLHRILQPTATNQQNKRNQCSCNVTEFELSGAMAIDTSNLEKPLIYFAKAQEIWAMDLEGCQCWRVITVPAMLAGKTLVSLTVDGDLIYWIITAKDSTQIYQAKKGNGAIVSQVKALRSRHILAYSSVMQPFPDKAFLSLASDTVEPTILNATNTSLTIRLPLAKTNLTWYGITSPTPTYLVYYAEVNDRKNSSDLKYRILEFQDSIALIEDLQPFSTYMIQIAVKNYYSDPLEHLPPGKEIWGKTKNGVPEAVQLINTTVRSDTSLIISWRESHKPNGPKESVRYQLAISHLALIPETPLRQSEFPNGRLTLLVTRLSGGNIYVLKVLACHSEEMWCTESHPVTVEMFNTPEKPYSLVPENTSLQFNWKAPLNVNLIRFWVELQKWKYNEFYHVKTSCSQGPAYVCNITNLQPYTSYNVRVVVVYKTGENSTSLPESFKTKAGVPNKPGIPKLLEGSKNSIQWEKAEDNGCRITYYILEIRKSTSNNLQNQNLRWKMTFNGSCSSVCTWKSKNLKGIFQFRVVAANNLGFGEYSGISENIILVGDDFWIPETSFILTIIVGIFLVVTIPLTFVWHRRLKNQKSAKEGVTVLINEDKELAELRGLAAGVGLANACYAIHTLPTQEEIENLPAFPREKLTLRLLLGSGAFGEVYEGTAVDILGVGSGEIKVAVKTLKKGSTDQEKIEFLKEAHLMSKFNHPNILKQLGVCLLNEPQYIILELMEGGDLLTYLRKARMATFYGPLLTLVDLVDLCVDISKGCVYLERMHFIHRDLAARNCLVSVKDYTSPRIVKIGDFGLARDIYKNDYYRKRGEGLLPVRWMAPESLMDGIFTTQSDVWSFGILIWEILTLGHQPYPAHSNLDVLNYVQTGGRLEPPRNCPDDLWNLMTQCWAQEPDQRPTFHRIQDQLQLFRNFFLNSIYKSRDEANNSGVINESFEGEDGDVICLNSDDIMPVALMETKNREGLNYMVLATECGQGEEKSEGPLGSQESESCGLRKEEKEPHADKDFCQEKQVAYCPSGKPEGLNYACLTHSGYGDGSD
Procedure: The screening was performed using the “HotSpot” assay platform. The assay measures the conversion of a peptide substrate to ^33P-labelled phosphorylated product. Briefly, specific kinase/substrate pairs along with required cofactors were prepared in reaction buffer. Specifically, the substrate was prepared in reaction buffer (20 mM Hepes, pH 7.5; 10 mM MgCl2; 1 mM EGTA; 0.02% Brij35; 0.02 mg/mL BSA; 0.1 mM Na3VO4; 2 mM DTT; 1% DMSO), followed by delivery of any required cofactor to the resulting substrate solution. The corresponding kinase was delivered into the substrate solution and the reaction mixture was mixed gently. Compound was delivered into the reaction mixture, followed 15-20 minutes later by addition of a mixture of ATP (Sigma, St. Louis Mo.) and ^33P ATP (specific activity 0.01 μCi/μL final; Perkin Elmer, Waltham, Mass.) to a final concentration of 10 μM-30 μM to initiate the reaction. Reactions were carried out at RT for 120 min, followed by spotting of the reactions onto P81 ion exchange filter paper (Whatman #3698-915; Whatman Inc., Piscataway, N.J.). Unbound phosphate was removed by extensive washing of filters in 0.75% phosphoric acid. […] The percent of enzyme inhibition was calculated based on the percent of remaining kinase activity. IC50 values and curve fits were obtained using Prism (GraphPad Software).

| SMILES | IC50 (FLT3 (ITD)) [nM] | IC50 (ROS/ROS1) [nM] |
| --- | --- | --- |
| CC(C)(C)c1cc(Nc2nc(N3CCC[C@@H]3C(=O)N3CCC(F)(F)CC3)nc3c2CCC3)n[nH]1 [142a, (R)-(1-(4-((5-(tert-butyl)-1H-pyrazol-3-yl)amino)-6,7-dihydro-5H-cyclopenta[d]pyrimidin-2-yl)pyrrolidin-2-yl)(4,4-difluoropiperidin-1-yl)methanone] | > 1000 | > 1000 |
| CC(C)(C)c1cc(Nc2nc(N3CCC[C@H]3C(=O)N3CCC(F)(F)CC3)nc3c2CCC3)n[nH]1 [142b, (S)-(1-(4-((5-(tert-butyl)-1H-pyrazol-3-yl)amino)-6,7-dihydro-5H-cyclopenta[d]pyrimidin-2-yl)pyrrolidin-2-yl)(4,4-difluoropiperidin-1-yl)methanone] | > 1000 | > 1000 |
| CCN(C(=O)[C@@H]1CCCN1c1nc2c(c(Nc3cc(C(C)(C)C)[nH]n3)n1)CCC2)c1nccs1 [144b, (S)-1-(4-((5-(tert-butyl)-1 H-pyrazol-3-yl)amino)-6,7-dihydro-5H-cyclopenta[d]pyrimidin-2-yl)-N-ethyl-N-(thiazol-2-yl)pyrrolidine-2-carboxamide] | > 1000 | > 1000 |

Now from value to compound:

| IC50 (FLT3 (ITD)) [nM] | IC50 (ROS/ROS1) [nM] | SMILES |
| --- | --- | --- |
| 1480 | – | CC1(C(=O)N2CCC(F)(F)CC2)CCCN1c1nc2c(c(Nc3cc(C4CCCC4)[nH]n3)n1)CCC2 (racemic) [compound 146, (1-(4-((5-cyclopentyl-1H-pyrazol-3-yl)amino)-6,7-dihydro-5H-cyclopenta[d]pyrimidin-2-yl)-2-methylpyrrolidin-2-yl)(4,4-difluoropiperidin-1-yl)methanone] |
| 167 | 4.41 | CC(C)c1cc(Nc2nc(N3CCC[C@H]3C(=O)N(C)c3nccs3)nc3c2CCC3)n[nH]1 [68b, (S)-1-(4-((5-isopropyl-1H-pyrazol-3-yl)amino)-6,7-dihydro-5H-cyclopenta[d]pyrimidin-2-yl)-N-methyl-N-(thiazol-2-yl)pyrrolidine-2-carboxamide] |
| 13.7 | 52.2 | CCC(=O)N1CCN(C(=O)[C@H]2CCCN2c2nc3c(c(Nc4cc(C5CCCC5)[nH]n4)n2)CCC3)CC1 [143a, 1-(4-((4-((5-cyclopentyl-1H-pyrazol-3-yl)amino)-6,7-dihydro-5H-cyclopenta[d]pyrimidin-2-yl)-D-prolyl)piperazin-1-yl)propan-1-one] |
| 310 | > 1000 | CCC(=O)N1CCN(C(=O)[C@@H]2CCCN2c2nc3c(c(Nc4cc(C5CCCC5)[nH]n4)n2)CCC3)CC1 [143b, (S)-1-(4-((4-((5-cyclopentyl-1H-pyrazol-3-yl)amino)-6,7-dihydro-5H-cyclopenta[d]pyrimidin-2-yl)prolyl)piperazin-1-yl)propan-1-one] |
| 435 | – | CCN(C(=O)[C@@H]1CCCN1c1nc2c(c(Nc3cc(C(C)C)[nH]n3)n1)CCC2)c1nccs1 [145b, (S)—N-ethyl-1-(4-((5-isopropyl-1H-pyrazol-3-yl)amino)-6,7-dihydro-5H-cyclopenta[d]pyrimidin-2-yl)-N-(thiazol-2-yl)pyrrolidine-2-carboxamide] |
